Source: PubChem BioAssay AID434955 (Southern Research Specialized Biocontainment Screening …, 2010)

Test system: M. tuberculosis H37Rv growth with meropenem, percent inhibition
Experiment: beta-lactam sensitization of Mtb H37Rv, H37Rv (AID 434955)

## CCCCN=C1CC(C)(C)CC(=O)/C1=C(/O)CCC
  IC90: 28.7 µM

## Nc1ccc(C(=O)O)c(O)c1
  IC90: 1.88 µM

## Cc1[nH]n(-c2ccccc2)c(=O)c1/C=N/NC(=O)c1cccc([N+](=O)[O-])c1
  IC90: 70.7 µM

## COc1cccc(C(=O)C2CCCN(Cc3ccccn3)C2)c1 (stereo unspecified)
  IC90: 97.5 µM

## CCNC(=S)N/N=C1\C(=O)c2cccc3cccc1c23
  IC90: 7.61 µM

## O=C(CCl)N(c1ccccc1)C1CCS(=O)(=O)C1 (stereo unspecified)
  IC90: 13.9 µM

## C/C(CC(=O)Nc1c(C)cc(C)cc1C)=N\NC(=O)c1cnccn1
  IC90: 17.4 µM

## CC(=O)Nc1ccc(S(=O)(=O)Nc2cccc3cccnc23)cc1
  IC90: 43.3 µM

## CCOc1ccc2c(c1)c(C(C)=O)c(C)n2-c1ccccc1
  IC90: 1.96 µM

## Cc1cccc(-n2nc([N+](=O)[O-])c(=NC3CCN(Cc4ccccc4)CC3)n2O)c1
  IC90: 30.5 µM

## O=C(N/N=C/c1ccc([N+](=O)[O-])o1)c1ccccc1-n1cccc1
  IC90: 29.4 µM

## NNC(=O)c1cccc(O)c1
  IC90: 73.9 µM

## O=c1c2c3n(c(=S)nc2[nH]n1-c1ccccc1)CCCCC3
  IC90: 13.3 µM

## O=C1COc2ccc(C(=O)CCl)cc2N1
  IC90: 44.4 µM

## O=C(CCSc1ccc(Cl)c(Cl)c1)NC12CC3CC(CC(C3)C1)C2
  IC90: 12.3 µM

## CCN(CC(=O)Nc1ccc2c(c1)OCCO2)C(=O)c1ccc([N+](=O)[O-])s1
  IC90: 26 µM

## Cc1cccc(Nc2nnc(SCC(=O)Nc3ncc(C(F)(F)F)cc3Cl)s2)c1C
  IC90: 21.5 µM

## O=C(N[C@@H](Cc1ccccc1)C(=O)CCl)OCc1ccccc1
  IC90: 46.9 µM

## COC(=O)c1sc(-c2ccc(C(C)(C)C)cc2)cc1NC(=O)CCC(=O)O
  IC90: 28.7 µM

## Cc1onc(NC(=O)c2ccc([N+](=O)[O-])o2)c1Br
  IC90: 16.4 µM

## Cc1ccccc1OCC(=O)Nc1ccccc1N1CCCCC1
  IC90: 13.5 µM

## CC(=O)c1ccc(OC(=O)N(c2ccccc2)c2ccccc2)cc1
  IC90: 32.9 µM

## Cc1cccc(OCc2nc(-c3ccccn3)n[nH]2)c1
  IC90: 7.37 µM

## Cc1[nH]n(-c2ccccc2)c(=O)c1/C=N/NC(=O)c1ccoc1C
  IC90: 3.01 µM

## CCN(CC)c1ccc(CN2CCCCCC2)cc1
  IC90: 49.4 µM

## CCN(CC)S(=O)(=O)c1ccc(N/N=C(\C)c2ccc(OC)cc2O)nc1
  IC90: 10.4 µM

## Cc1ccc(C)c(N2CCN(C3CCCC(C)C3)CC2)c1 (stereo unspecified)
  IC90: 48.2 µM

## CN1CCN(c2ccc(NC(=O)c3ccc(-c4cccc([N+](=O)[O-])c4)o3)cc2)CC1
  IC90: 6.71 µM

## CC12CCC(C/C1=N\N=C1\NC(=O)/C(=C\c3cccc(Br)c3)S1)C2(C)C (stereo unspecified)
  IC90: 37.7 µM

## CCC(=O)N1CCN(c2ccc(NC(=S)NC(=O)c3ccc(OC)c([N+](=O)[O-])c3)cc2)CC1
  IC90: 67.8 µM

## C=CCN=c1scc(-c2ccc(F)cc2)n1/N=C/c1ccccn1
  IC90: 71.7 µM

## CCOC(=O)c1c(C)n(-c2ccccc2)c2ccc(OCCN(C)C)cc12
  IC90: 21.7 µM

## Cn1c(SCC(=O)OC2CCCCC2)nnc1-c1ccc2c(c1)OCO2
  IC90: 34.9 µM

## c1ccc(-c2cc(N3CCOCC3)nc3ccccc23)cc1
  IC90: 91.5 µM

## O=C(Nc1ccc2nc3n(c(=O)c2c1)CCCC3)c1cc([N+](=O)[O-])ccc1F
  IC90: 91 µM

## CC(C)(C)c1ccc(C(=O)Oc2ccc3c(c2)OCC3=O)cc1
  IC90: 29.4 µM

## CCOC(=O)c1cnc2cc(-c3ccc(C(C)(C)C)cc3)nn2c1N
  IC90: 5.74 µM

## O=C(CCNc1ccccc1)c1cccc([N+](=O)[O-])c1
  IC90: 45.8 µM

## COc1ccc(N2C(=O)NC(=O)/C(=C\c3ccc([N+](=O)[O-])s3)C2=O)cc1
  IC90: 21.3 µM

## COc1ccc(C(=O)CN(C(=O)c2ccc(Cl)cc2)N2C(=O)c3ccccc3C2=O)cc1
  IC90: 22.4 µM

## O=C1/C(=C/c2ccncc2)CCc2ccccc21
  IC90: 29.1 µM

## O=C(CSc1ncn[nH]1)Nc1cccc2ccccc12
  IC90: 65 µM

## CC(=O)Nc1cccc(/C(C)=N/NC(N)=S)c1
  IC90: 28.6 µM

## CCOC(=O)CSc1nnc(CNC(=O)c2cccs2)n1CCc1ccccc1
  IC90: 49.5 µM

## CCOc1ccc(N=c2cc(-c3ccc(OC)cc3)oc3ccccc23)cc1
  IC90: 50.3 µM

## CSc1ccc(/C=C/C(=O)NC23CC4CC(CC(C4)C2)C3)cc1
  IC90: 16.1 µM

## CCOC(=O)N1CCN(C(=O)CSc2nnc(COc3ccccc3)o2)CC1
  IC90: 18.4 µM

## CN(C(=O)Nc1ccc(Cl)cc1)n1cnc2ccccc2c1=O
  IC90: 48.6 µM

## O=C(NCc1nc2ncc(Br)cc2[nH]1)c1ccccc1
  IC90: 54.9 µM

## COc1ccc(-n2cc(-c3ccccc3)c3c(NN4CCOCC4)ncnc32)cc1
  IC90: 36.1 µM

## COc1ccc(-c2cc(C(F)F)nc(-n3nc(C)cc3C)n2)cc1
  IC90: 54.1 µM

## CCCCC12CN3CC(C)(CN(C1)C3c1ccc([N+](=O)[O-])o1)C2=O (stereo unspecified)
  IC90: 23.5 µM

## COCCNC(=S)N/N=C1\CC(C)CC(C)(C)C1 (stereo unspecified)
  IC90: 27.5 µM

## C[C@H]1C=CC(=O)O[C@H]1c1ccccc1
  IC90: 49.5 µM

## CCCCNC(=O)c1onc(CSc2ccc(OC)cc2)c1C(=O)O
  IC90: 27.2 µM

## c1ccc2c(c1)Cn1nc(Cc3nc4c(s3)CCCC4)nc1-2
  IC90: 53 µM

## Cc1cccc(CSc2nnc(C)c(=O)n2N)c1
  IC90: 9.9 µM

## C=CCNCCCOc1ccc(Cl)cc1C(C)(C)C
  IC90: 52.6 µM

## COCCCn1c(=O)/c(=C\c2ccccc2OC(C)C)s/c1=C(/C#N)C(=O)Nc1ccc(C(=O)O)cc1
  IC90: 18.5 µM

## Nc1ccc(N=Nc2ccccc2O)c(N)c1
  IC90: 34 µM

## COc1ccccc1C(c1c(N)n(C)c(=O)n(C)c1=O)C(C)[N+](=O)[O-] (stereo unspecified)
  IC90: 18 µM

## COc1cc(/C(C)=N\NC(N)=S)cc(OC)c1OC
  IC90: 19.6 µM

## COc1cc(C(=O)Oc2cccnc2)cc(OC)c1OC
  IC90: 13.6 µM

## CCn1cc(C(=O)O)c(=O)c2cc(F)c(N3CCN(C(=S)NC(=O)c4ccccc4C)CC3)cc21
  IC90: 16 µM

## C=CCc1cc(Cl)ccc1OCCCNC(C)CC (stereo unspecified)
  IC90: 51.3 µM

## Cc1nnc(SCc2cccc(Cl)c2)n(N)c1=O
  IC90: 10.1 µM

## COc1ccc(C2(CNC(=O)c3cc([N+](=O)[O-])cc([N+](=O)[O-])c3)CCCC2)cc1OC
  IC90: 1.61 µM

## COc1cccc(/C=N/Nc2nc(N3CCCC3)nc(N3CCCC3)n2)c1O
  IC90: 36.1 µM

## Cc1ccc(C(=O)N/C(=C\c2ccc(-c3ccc(Cl)cc3)o2)C(=O)NCCCN(C)C)cc1
  IC90: 23.7 µM

## CCOc1ccc2nc(SC3CC(=O)N(c4cccc(OC)c4)C3=O)sc2c1 (stereo unspecified)
  IC90: 25.7 µM

## CCNc1nc(CN2CCCCC2)nc2scc(-c3ccccc3)c12
  IC90: 57.3 µM

## O=C(COC(=O)c1ccc(Cl)cc1[N+](=O)[O-])NNC(=O)c1cccs1
  IC90: 51.1 µM

## CCOC(=O)c1c(C)[nH]c(C)c1C(=O)COC(=O)/C=C/c1ccc(OC(F)F)cc1
  IC90: 91.4 µM

## O=C(Oc1c(-c2ccccc2)c(=O)n2c3c(cccc13)CC2)c1cccc([N+](=O)[O-])c1
  IC90: 62.3 µM

## COc1cc(C(=O)Nc2cccc(-c3cn4cccnc4n3)c2)cc(OC)c1OC
  IC90: 30.2 µM

## Nc1ncnc2c1c(-c1ccc(Oc3ccccc3)cc1)cn2C1CCCC1
  IC90: 60.3 µM

## O=C(Cc1ccc(Cl)cc1Cl)Nc1ccc(OC(F)F)c(Cl)c1
  IC90: 13.7 µM

## CCc1cc(C(=O)O)c(NC(=O)/C=C/c2ccc(OC)cc2)s1
  IC90: 59.7 µM

## O=C(CCCCCN1C(=O)c2cccc([N+](=O)[O-])c2C1=O)Nc1ccccc1F
  IC90: 44.1 µM

## O=C(OCn1nnc2ccccc2c1=O)c1ccc2c(=O)n3c(nc2c1)CCC3
  IC90: 26.1 µM

## CCCCNC(=O)c1onc(CSc2ccccc2CC)c1C(=O)O
  IC90: 23.7 µM

## O=C1O/C(=C/c2ccccc2)N=C1c1ccccc1
  IC90: 28.3 µM

## CC(C)C1CC(CCNCc2ccc(N(C)C)cc2)(c2ccccc2)CCO1 (stereo unspecified)
  IC90: 26.9 µM

## Cn1nnnc1Sc1ncnc2scc(-c3ccc(C(F)(F)F)cc3)c12
  IC90: 15 µM

## Cc1ccccc1NC(=O)/C(C#N)=C\c1cc(C)n(-c2ccc(C(=O)O)cc2)c1C
  IC90: 51.1 µM

## Cc1c(OCc2ccc(C(=O)O)cc2)ccc2c(-c3ccccc3)cc(=O)oc12
  IC90: 2.09 µM

## CN1c2ccccc2C(=O)NC1c1ccc([N+](=O)[O-])s1 (stereo unspecified)
  IC90: 33.3 µM

## CCc1cc2c(-c3ccccc3)cc(=O)oc2cc1OC(C)C(C)=O (stereo unspecified)
  IC90: 48.5 µM

## COc1cc(CNCCO)cc(Br)c1OCc1ccccc1Cl
  IC90: 52.7 µM

## CC/C(=N\NC(=S)NC(C)C)c1ccc(OC)c(OC)c1
  IC90: 15.5 µM

## Cc1c(C(=O)NCCC2=CCCCC2)sc2ncnc(N3CCCCC3C)c12 (stereo unspecified)
  IC90: 52 µM

## C=CCSc1nc2c(c(-c3ccsc3)c1C#N)CN(C)CC2
  IC90: 55.1 µM

## Cc1ccc(CN2C(=O)N/C(=C\c3ccc(-c4ccc(C(=O)O)cc4C)o3)C2=O)cc1
  IC90: 14.7 µM

## CCOC(=O)c1ccc(C(=O)NNC(=O)C2CC=CCC2)cc1 (stereo unspecified)
  IC90: 40 µM

## O=C1OC(/C=C/c2ccc(Cl)cc2Cl)=NC/1=C\c1cccs1
  IC90: 33.4 µM

## Cc1cccc(Cl)c1NC(=S)NN
  IC90: 55.1 µM

## Cc1c(C=O)c(C=O)c(C)n1Cc1ccccc1
  IC90: 69.3 µM

## CCCCNC(=O)c1onc(CSc2ccc(F)c(F)c2)c1C(=O)O
  IC90: 56.8 µM

## COc1cc(NC(=O)c2ccccc2)c(OC)cc1NC(=O)CN1CCOCC1
  IC90: 69.2 µM

## c1ccc(-n2c3ccccc3c3ccccc32)cc1
  IC90: 22.7 µM

## O=c1c2cc(Cl)ccc2[nH]c(=S)n1Cc1cccs1
  IC90: 13.2 µM

## Cc1cc2ccccc2n1CCNC(=O)COc1ccccc1
  IC90: 42.8 µM

## O=[N+]([O-])c1cc(Cl)cc(/C=N/NC(=S)Nc2cc(S(=O)(=O)N3CCOCC3)ccc2Cl)c1O
  IC90: 29.3 µM

## O=C1OC(/C=C/c2ccccc2)=NC/1=C/c1ccco1
  IC90: 13.9 µM

## Cc1ccc(C)c(SCc2noc(C(=O)NCC3CCCO3)c2C(=O)O)c1 (stereo unspecified)
  IC90: 48 µM

## O=C1CS/C(=N/N=C2C3CC4CC(C3)CC2C4)N1
  IC90: 13.8 µM

## C=C1C(=O)O[C@@H]2[C@H]1[C@@H](OC(=O)/C(C)=C/C)C/C(C)=C\C(=O)/C=C(\C)[C@@H]2O
  IC90: 25.2 µM

## CCCOc1ccc(C(=O)CCN2CCCCC2)cc1
  IC90: 36.4 µM

## O=C(CSc1nnc(-c2ccncc2)o1)c1cccc([N+](=O)[O-])c1
  IC90: 45.4 µM

## O=C1COc2ccc(C(=O)/C=C/c3ccccc3)cc2N1
  IC90: 12.2 µM

## COc1ccc(-c2csc(NC(CO)c3nc4ccccc4n3Cc3ccc(C)cc3)n2)cc1 (stereo unspecified)
  IC90: 26.4 µM

## COc1cccc(/C=N/NC(=O)c2cnccn2)c1O
  IC90: 13.9 µM

## CCN(CC)C(=O)CSc1nnc2nnc3cc(OC)ccc3n12
  IC90: 13.4 µM

## COc1cc2nc(N3CCN(C(=O)OCc4ccccc4)[C@H](C(=O)NC(C)(C)C)C3)nc(N)c2cc1OC
  IC90: 84 µM

## O=C(CN1C(=O)c2cccc([N+](=O)[O-])c2C1=O)N1CCN(c2ccc(F)cc2)CC1
  IC90: 74.5 µM

## O=C(/C=C/c1ccccn1)c1cc(Br)ccc1O
  IC90: 45.1 µM
